Test results published in patent US11298383B2, “Lactobacillus and bacillus based direct fed microbial treatment for poultry and method of use” (priority 2016, dated 2022).

Columns and labels:
[1] = tested on: inflammatory cytokine gene expression (MIP2, TNFα, IL-6) in IEC-6 rat intestinal epithelial cells; test: Inflammatory cytokine gene expression (qPCR) in IEC-6 cells with and without LPS challenge (Example 6); type: cell-based; conditions: LPS alone, 1 hr at 37° C.
[2] = tested on: avian pathogenic Escherichia coli (APEC); type: in vivo; conditions: 3 days of age; ½ dose in ovo gentamycin; all birds treated with the product
[3] = tested on: avian pathogenic Escherichia coli (APEC); test: APEC levels in GI tract of commercial broilers at 12-15 days, with and without in ovo gentamycin (Example 2); type: in vivo; conditions: GI tract of broilers at 12-15 days of age

Substance	increase in gene expression of all three inflammatory cytokines (MIP2, TNFα, IL-6) relative to unstimulated control cells [1]	APEC levels, gentamycin-treated vs untreated birds [2]	birds with detectable levels of APEC [3]	average APEC level ([3]; ten birds per treatment)
Lipopolysaccharide	> 50 fold	–	–	–
gentamycin	–	not statistically different	2 out of 10 birds	6.6×10^1 CFU/g
